# Earlier results as cited in paper PMC7998926 (Microorganisms, 2021).
# Tested on: MARV
# Conditions: mouse, in vivo; cited from earlier work
compound,measurement,value
CC(C)COCC(CN(Cc1ccccc1)c1ccccc1)N1CCCC1 (stereo not shown) [Bepridil],protection,strongly protected
